The values below come from ChEMBL document CHEMBL1201862, “PubChem BioAssay data set” (2004).

Assay [1] has as its target T1, Matrix metalloproteinase-14 (Homo sapiens, UniProt P50281). Briefly: SAR confirmation of uHTS hits for a small molecule inhibitors of MT1-MMP activation in a fluorescence assay. The assay is classed as functional.
For assay [2], the target named is T1, Matrix metalloproteinase-14. Briefly: Dose Response confirmation of uHTS hits for a small molecule inhibitors of MT1-MMP activation in a fluorescence assay set 1. The assay is classed as functional.
A short description of assay [3]: Inhibition of Plasmodium falciparum NF54 Measured in Cell-Based System Using Plate Reader - 2138-11_Inhibitor_Dose_CherryPick_Activity. The assay is classed as functional.
A short description of assay [4]: African trypanosome bloodstream form growth inhibition – STIB900 strain, plate reader, cherry pick, dose response (AID 651893). The assay is classed as functional, cell-based, Trypanosoma brucei rhodesiense. As to conditions: Trypanosoma brucei.
The nature of assay [5]: L6 myocyte viability loss – cell-based, plate reader, cherry-pick, cytotoxicity control, dose response (AID 651896). The assay is classed as functional.
Assay [6] in a line: antileishmanial activity on axenic amastigotes – plate reader, cherry pick, dose response (AID 651891). The assay is classed as functional, cell-based. Particulars: Leishmania donovani.
The nature of assay [7]: intracellular Trypanosoma cruzi inhibitors in host cells – cell-based, plate reader, cherry-pick samples, set 3, dose response (AID 651818).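 Note: compounds incubated with infected cells for about four days.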 In kind it is functional.
The nature of assay [8]: Inhibition of T. cruzi Tulahuen strain amastigotes in L-6 muscle cells Measured in Cell-Based and Microorganism Combination System Using Plate Reader - 2138-03_Inhibitor_Dose_CherryPick_Activity. The assay is classed as functional. Particulars: Rattus norvegicus, L6.
Assay [9] can be described thus: general mammalian cell viability loss – activator set, cherry-pick, cytotoxicity control for miR-122 modulator project, dose response (AID 720690).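 Note: HEK293T human cells scored for general mammalian cytotoxicity.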 The assay is classed as functional, cell-based.
A further assay concerns INS1. As to the kind of experiment: INS-1E survival protection against cytokine death – cell-based, luminescence, retest, dose response (AID 449756).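 Note: cell death triggered by IL-1 beta plus TNF-alpha plus IFN-gamma mixture; protective hits raise ATP signal compared with cytokine alone wells.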 The assay is classed as functional. As to conditions: Rattus norvegicus.
A short description of assay [10]: activation of miR-122 Renilla sensor silencing – cell-based, Huh7 psiCHECK-miR122, Renilla luciferase, cherry-picked, dose response (AID 651956).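 Note: huh7 hepatoma cells stably carrying a psiCHECK-2 miR-122 sensor plasmid; renilla luciferase signal reporting endogenous miR-122 activity after 48 h compound exposure.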 In kind it is functional.
A short description of assay [11]: Luminescence Cell-Based Dose Retest to Confirm Inhibitors of Cancer Stem Cells. [Related pubchem assays (depositor defined):AID2717, AID2721]. Particulars: Homo sapiens. The assay is classed as functional.
The nature of assay [12]: viability loss in HEK293T cells – cell-based, cherry-picks, cytotoxicity control for HIV Vif inhibitor project, dose response (AID 652208). The assay is classed as functional.
A short description of assay [13]: inhibition of Env-driven cell fusion – HIV entry, plate reader, dry powder, dose response (AID 687023). In kind it is functional, cell-based.
Assay [14] in a line: HIV-1 AD8 envelope cell-cell fusion blockers – cherry-pick, dose response (AID 652062).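 Note: luciferase signal from cell-cell fusion driven by HIV-1 clade B AD8 Env; potency is for inhibitors of fusion seen as a drop in luminescence.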 The assay is classed as functional, cell-based.
Assay [15] can be described thus: viability loss in CEM21 cells – cell-based, plate reader, dry powder, cytotoxicity control, dose response (AID 687026). In kind it is functional.
Assay [16] is described as follows: blockers of HIV-1 envelope-mediated cell-cell fusion – cherry-pick, dose response (AID 652057). In kind it is functional, cell-based.
Assay [17] is described as follows: blockers of HIV-1 ZM109 envelope-driven cell-cell fusion – HeLa effector, CEM target cells, luciferase, cherry-pick, dose response (AID 652058).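 Note: luciferase signal from HIV-1 Env mediated cell-cell fusion of effector and target cells.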 The assay is classed as functional, cell-based.
Assay [18] can be described thus: luciferase signal loss, tTA control fusion, HeLa F-luc tTA cells, dry powder, counter-screen for HIV Env fusion inhibitor project, dose response (AID 687021). The assay is classed as functional, cell-based. In general terms: The purpose of a counterscreen is to sort out artefacts and off-target activity.
Assay [19] in a line: off-target signal loss in HeLa-CEM21 co-culture – HeLa F-luc CTL cells, cherry-picked, counter-screen for HIV-1 Env fusion inhibitor project, dose response (AID 652040).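 Note: potency for signal decrease marking cytotoxic or nonspecific inhibition.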 In kind it is functional, cell-based.
For assay [20], the target named is T2, Microphthalmia-associated transcription factor (Homo sapiens, UniProt O75030).
T2 sequence (O75030 whole entry): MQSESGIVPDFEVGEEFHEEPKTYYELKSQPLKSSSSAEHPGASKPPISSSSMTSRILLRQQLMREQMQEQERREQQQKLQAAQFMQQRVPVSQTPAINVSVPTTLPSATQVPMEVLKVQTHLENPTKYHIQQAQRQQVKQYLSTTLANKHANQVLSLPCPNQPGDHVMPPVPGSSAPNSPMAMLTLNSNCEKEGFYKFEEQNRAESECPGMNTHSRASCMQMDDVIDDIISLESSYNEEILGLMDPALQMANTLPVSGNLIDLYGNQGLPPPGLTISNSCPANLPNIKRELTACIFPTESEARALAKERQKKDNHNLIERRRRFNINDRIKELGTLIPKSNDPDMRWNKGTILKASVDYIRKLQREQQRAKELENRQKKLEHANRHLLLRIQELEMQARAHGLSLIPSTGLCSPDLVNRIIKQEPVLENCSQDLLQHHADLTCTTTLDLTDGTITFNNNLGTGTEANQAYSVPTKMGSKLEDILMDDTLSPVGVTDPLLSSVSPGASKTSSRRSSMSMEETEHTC
Briefly: reducers of TRPM1 reporter luminescence, concentration series – cell-based, SK-MEL-5, cherry-picked, set 3, MITF inhibitor project, dose response (AID 493073).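 Note: SK-MEL-5 melanoma cells with luciferase driven by the MITF target TRPM1 promoter.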 The assay is classed as functional.

Assay [21] can be described thus: Counterscreen for antagonists of the human trace amine associated receptor 1 (hTAAR1): Fluorescence-based cell-based high throughput dose response assay to identify nonselective Ga16 antagonists. In kind it is functional.
Assay [22] is described as follows: Counterscreen for […] of the human trace amine associated receptor 1 (TAAR1): Fluorescence-based cell-based high throughput dose response assay to identify nonselective Ga16 agonists. In kind it is functional.
Assay [23] addresses T3, Trace amine-associated receptor 1 (Homo sapiens, UniProt Q96RJ0).
T3 sequence (Q96RJ0 whole entry): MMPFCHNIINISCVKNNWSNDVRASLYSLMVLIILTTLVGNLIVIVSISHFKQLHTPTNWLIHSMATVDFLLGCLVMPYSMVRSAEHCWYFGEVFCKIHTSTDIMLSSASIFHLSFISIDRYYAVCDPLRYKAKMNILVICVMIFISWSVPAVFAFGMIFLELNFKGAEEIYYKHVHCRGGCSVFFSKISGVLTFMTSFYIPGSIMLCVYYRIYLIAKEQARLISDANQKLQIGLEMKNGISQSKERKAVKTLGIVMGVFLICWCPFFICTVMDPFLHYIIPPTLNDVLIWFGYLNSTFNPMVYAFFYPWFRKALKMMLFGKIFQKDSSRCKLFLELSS
As to the kind of experiment: Fluorescence-based cell-based high throughput dose response assay to identify antagonists of the human trace amine associated receptor 1 (TAAR1). The assay is classed as functional.

The target of assay [24] is T3, Trace amine-associated receptor 1. As to the kind of experiment: Counterscreen for antagonists of the human trace amine associated receptor 1 (hTAAR1): Fluorescence-based cell-based high throughput dose response assay to identify TAAR1 Agonists. The assay is classed as functional.
The nature of assay [25]: CMV-driven luciferase expression suppression in HEK293 – cell-based, luminescence, dry powder, counter-screen for Pax8 inhibitor project, dose response (AID 743020). In kind it is functional.
Assay [26] can be described thus: OVCAR-3 cell viability loss – plate reader, dry powder samples, PAX8 inhibitor project, dose response (AID 743044). In kind it is functional, cell-based.
A short description of assay [27]: OVCAR8 cell viability loss – plate reader, dry powder samples, PAX8 project, dose response (AID 743197). In kind it is functional, cell-based. Particulars: OVCAR-8.
Assay [28] is described as follows: A2780 cell killing – plate reader, dry powder samples, cytotoxicity control, dose response (AID 743046). In kind it is functional, cell-based.
The target in the next assay is Paired box protein Pax-8 (Homo sapiens, UniProt Q06710). As to the kind of experiment: PAX8 transcriptional activity inhibition in RMG-I – RMG-I cells, luciferase, cherry-pick, dose response (AID 687027).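 Note: luciferase reporter driven by Pax8 target thyroperoxidase promoter measured by SteadyGlo luminescence.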 The assay is classed as functional, cell-based.
Sequence of Paired box protein Pax-8 (Q06710 whole entry): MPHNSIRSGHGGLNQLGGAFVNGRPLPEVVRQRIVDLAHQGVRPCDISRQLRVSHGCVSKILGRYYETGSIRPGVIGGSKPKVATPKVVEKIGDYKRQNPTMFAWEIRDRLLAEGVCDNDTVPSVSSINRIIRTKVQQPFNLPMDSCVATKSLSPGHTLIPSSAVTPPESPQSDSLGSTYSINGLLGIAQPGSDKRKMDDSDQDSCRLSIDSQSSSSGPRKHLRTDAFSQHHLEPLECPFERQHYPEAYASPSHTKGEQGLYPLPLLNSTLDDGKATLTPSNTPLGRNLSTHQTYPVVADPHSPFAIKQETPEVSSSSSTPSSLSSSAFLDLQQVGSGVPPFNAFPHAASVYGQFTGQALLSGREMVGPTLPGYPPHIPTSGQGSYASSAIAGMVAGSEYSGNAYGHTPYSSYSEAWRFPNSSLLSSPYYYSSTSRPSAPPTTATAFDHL
Assay [29] in a line: general cell-killing toxicity readout – plate reader, dry powder samples, cytotoxicity control for PAX8 inhibitor project, dose response (AID 743021). In kind it is functional, cell-based.
Assay [30] can be described thus: IGROV1 cell killing – plate reader, dry powder samples, PAX8 inhibitor project, dose response (AID 743043). The assay is classed as functional, cell-based. As to conditions: IGROV-1.
For assay [31], the target named is NAD-dependent protein deacylase sirtuin-5, mitochondrial (Homo sapiens, UniProt Q9NXA8). Briefly: blockers of sirtuin-5 peptide desuccinylation – biochemical, fluorescence imaging, cherry-pick, set 6, dose response (AID 720597).
Sequence of NAD-dependent protein deacylase sirtuin-5, mitochondrial (Q9NXA8 whole entry): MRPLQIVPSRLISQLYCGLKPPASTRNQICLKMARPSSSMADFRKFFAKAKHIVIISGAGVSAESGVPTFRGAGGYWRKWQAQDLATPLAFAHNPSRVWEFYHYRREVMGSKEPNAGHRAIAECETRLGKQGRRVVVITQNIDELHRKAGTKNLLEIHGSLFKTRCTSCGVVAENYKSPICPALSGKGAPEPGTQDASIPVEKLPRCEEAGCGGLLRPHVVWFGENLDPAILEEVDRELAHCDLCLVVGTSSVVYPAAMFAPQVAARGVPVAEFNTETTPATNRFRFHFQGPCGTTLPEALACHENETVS
The target in the next assay is Kallikrein-7 (Homo sapiens, UniProt P49862). Briefly: Fluorescence Intensity-based biochemical primary high throughput dose response assay to identify activators of kallikrein-7 (K7) zymogen.
Sequence of Kallikrein-7 (P49862 whole entry): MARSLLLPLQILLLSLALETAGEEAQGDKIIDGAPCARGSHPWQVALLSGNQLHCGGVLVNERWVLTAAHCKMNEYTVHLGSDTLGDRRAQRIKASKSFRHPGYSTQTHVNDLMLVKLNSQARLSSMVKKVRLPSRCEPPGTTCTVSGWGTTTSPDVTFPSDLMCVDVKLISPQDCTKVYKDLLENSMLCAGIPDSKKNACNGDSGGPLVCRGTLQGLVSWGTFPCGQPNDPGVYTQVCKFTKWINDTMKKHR

Molecules are shown by their SMILES. Where “and” joins values, the source holds several entries; their conditions need not be identical. Equal values may be shown once. Calls of active or inactive are those of the source. Bounds are passed on as bounds.

Usually IC50 stands for the concentration that gives 50% inhibition. For `COc1ccc(C)cc1Nc1nc(-c2c(C)[nH]c3ccccc23)cs1`, the results for the IC50 in assay [1] and in assay [2] were > 80 µM (inactive) and 22.1 µM (inactive), respectively.

The term AC50 denotes the midpoint of the concentration-response curve, whichever way the signal moves. Take `COc1ccc(CN(C)C[C@H]2Oc3c(NC(=O)c4ccncc4)cccc3C(=O)N([C@H](C)CO)C[C@@H]2C)cc1`: the IC50 in assay [3] was 7.39 µM (inactive); in [4], 20.2 µM (inactive); in assay [5], > 100 µM (inactive); in assay [6], > 100 µM (inactive); in [8], 7.39 µM (inactive). Also, the AC50 in assay [7] is 0.206 µM (active).

As to `COc1ccc(-c2cc(-c3nc4ccccn4c3NCc3ccccc3)ccc2OC)cc1`, the AC50 in [9] is 3.12 µM (active); in the assay with INS1, 1.33 µM (active); in [10], 8.74 µM (active); in assay [11], 5.24 µM (active); in assay [12], 1.69 µM (active).

Regarding `Oc1ccc(CNc2ccccc2F)c2cccnc12`, the AC50 is > 70 µM (inactive) in assay [13]; 9.33 µM (active) in assay [14]; 50.8 µM (active) and 64.1 µM (active) in assay [15]; 5.19 µM (active) in assay [16]; 1.58 µM (active) in assay [17]; > 70 µM (inactive) in [18]. Moreover, the results for the AC50 in [19] and in assay [20] were 36 µM (active) and 15.1 µM (active), respectively.

By EC50 is commonly meant the concentration needed to bring the measured effect to its halfway point. `COc1ccc(-c2cc(C(=O)NCC(C)C)no2)cc1`: the IC50 in assay [21] and in [23] was > 29.9 µM (inactive) each time. The EC50 in [22] and in [24] was > 29.9 µM (inactive) throughout.

As to `C[C@@H]1CN([C@H](C)CO)C(=O)c2cc(NS(=O)(=O)c3ccccc3)ccc2O[C@@H](C)CCCCO[C@@H]1CN(C)Cc1ccc(C(F)(F)F)cc1`, the AC50 was 65.4 µM (active) in assay [25]; 27.4 µM (active) in assay [26]; 39 µM (active) in assay [27]; 34.8 µM (active) in assay [28]; 5.74 µM (active) at Paired box protein Pax-8; 49 µM (active) in assay [29]. Also, the AC50 in assay [30] was 35.4 µM (active).

On to `CCCNC(=O)N1[C@@H](CO)[C@H](c2ccccc2)C12CN(C(=O)CC1CC1)C2`, for which the AC50 in [31] is 24.6 µM (active).

Regarding `COc1ccc2ccccc2c1C=NNC(=O)c1cc(-c2ccc(C)c(C)c2)[nH]n1`, the EC50 at Kallikrein-7 is > 2.57 µM (active).
